Data reported in PubChem BioAssay (NCI).
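Five concentrations, 48 hours, 96-well plates. At the GI50, growth is halved. TGI marks complete inhibition of growth.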

Experiments:
Test in all cases: inhibition of tumour cell growth, NCI panel, 48 h
[1] = test system: PC-3 prostate
[2] = test system: SK-MEL-2 melanoma
[3] = test system: NCI-H23 lung
[4] = test system: SK-MEL-28 melanoma
[5] = test system: OVCAR-8 ovarian
[6] = test system: MOLT-4 leukemia
[7] = test system: MDA-MB-231 breast
[8] = test system: SN12C renal
[9] = test system: SK-MEL-5 melanoma
[10] = test system: KM12 colon
[11] = test system: IGROV1 ovarian
[12] = test system: SNB-75 CNS
[13] = test system: SR leukemia
[14] = test system: UACC-62 melanoma
[15] = test system: HCT-15 colon
[16] = test system: 786-0 renal
[17] = test system: MALME-3M melanoma
[18] = test system: UO-31 renal
[19] = test system: SNB-19 CNS
[20] = test system: DU-145 prostate
[21] = test system: OVCAR-3 ovarian
[22] = test system: UACC-257 melanoma
[23] = test system: K-562 leukemia
[24] = test system: HL-60(TB) leukemia
[25] = test system: A498 renal
[26] = test system: U251 CNS
[27] = test system: EKVX NSCLC
[28] = test system: OVCAR-5 ovarian
[29] = test system: HCC-2998 colon
[30] = test system: HS 578T breast
[31] = test system: COLO 205 colon
[32] = test system: NCI-H460 lung
[33] = test system: MDA-MB-435
[34] = test system: NCI-H226 lung
[35] = test system: HOP-92 NSCLC
[36] = test system: HOP-62 NSCLC
[37] = test system: BT-549 breast
[38] = test system: NCI/ADR-RES ovarian
[39] = test system: SK-OV-3 ovarian
[40] = test system: SF-268 CNS
[41] = test system: SW-620 colon
[42] = test system: LOX IMVI melanoma
[43] = test system: T-47D breast
[44] = test system: TK-10 renal
[45] = test system: NCI-H522 lung
[46] = test system: RPMI-8226 leukemia
[47] = test system: A549 NSCLC
[48] = test system: RXF 393 renal
[49] = test system: HT29 colon
[50] = test system: OVCAR-4 ovarian
[51] = test system: CCRF-CEM leukemia
[52] = test system: SF-295 CNS
[53] = test system: ACHN renal

COc1cc([C@@H]2c3cc4c(cc3[C@H](OC(C)=O)[C@H]3COC(=O)[C@H]23)OCO4)cc(OC)c1OC
GI50 [1]: 37.1 nM
TGI [1]: > 100000 nM
GI50 [2]: 27600 nM
TGI [2]: > 100000 nM
GI50 [3]: 53 nM
TGI [3]: > 100000 nM
GI50 [4]: 13100 nM
TGI [4]: > 100000 nM
GI50 [5]: 36.1 nM
TGI [5]: > 100000 nM
GI50 [6]: 38.5 nM
TGI [6]: > 100000 nM
GI50 [7]: 41.6 nM
TGI [7]: > 100000 nM
GI50 [8]: 45.7 nM
TGI [8]: > 100000 nM
GI50 [9]: 22.9 nM
TGI [9]: 65.8 nM
GI50 [10]: 30.6 nM
TGI [10]: > 100000 nM
GI50 [11]: 57.1 nM
TGI [11]: > 100000 nM
GI50 [12]: 8430 nM
TGI [12]: > 100000 nM
GI50 [13]: 22.5 nM
TGI [13]: > 100000 nM
GI50 [14]: 59.8 nM
TGI [14]: > 100000 nM
GI50 [15]: 31.6 nM
TGI [15]: > 100000 nM
GI50 [16]: 34.1 nM
TGI [16]: > 100000 nM
GI50 [17]: > 100000 nM
TGI [17]: > 100000 nM
GI50 [18]: 80.8 nM
TGI [18]: > 100000 nM
GI50 [19]: 43.6 nM
TGI [19]: > 100000 nM
GI50 [20]: 41.2 nM
TGI [20]: > 100000 nM
GI50 [21]: 34 nM
TGI [21]: > 100000 nM
GI50 [22]: > 100000 nM
TGI [22]: > 100000 nM
GI50 [23]: 32.1 nM
TGI [23]: > 100000 nM
GI50 [24]: 22.3 nM
TGI [24]: 60.2 nM
GI50 [25]: 13.9 nM
TGI [25]: 65 nM
GI50 [26]: 35.2 nM
TGI [26]: > 100000 nM
GI50 [27]: 56.8 nM
TGI [27]: > 100000 nM
GI50 [28]: 53.3 nM
TGI [28]: > 100000 nM
GI50 [29]: 40.1 nM
TGI [29]: > 100000 nM
GI50 [30]: 31.2 nM
TGI [30]: > 100000 nM
GI50 [31]: 28.8 nM
TGI [31]: 78.5 nM
GI50 [32]: 31.7 nM
TGI [32]: > 100000 nM
GI50 [33]: 19.2 nM
TGI [33]: 53.3 nM
GI50 [34]: 97.5 nM
TGI [34]: > 100000 nM
GI50 [35]: 25.4 nM
TGI [35]: 4940 nM
GI50 [36]: 48.3 nM
TGI [36]: > 100000 nM
GI50 [37]: 31.1 nM
TGI [37]: 21900 nM
GI50 [38]: 27.1 nM
TGI [38]: > 100000 nM
GI50 [39]: 35 nM
TGI [39]: > 100000 nM
GI50 [40]: 48.4 nM
TGI [40]: > 100000 nM
GI50 [41]: 33.4 nM
TGI [41]: > 100000 nM
GI50 [42]: 29.3 nM
TGI [42]: > 100000 nM
GI50 [43]: 66.9 nM
TGI [43]: > 100000 nM
GI50 [44]: 75200 nM
TGI [44]: > 100000 nM
GI50 [45]: 18 nM
TGI [45]: 72.2 nM
GI50 [46]: 30 nM
TGI [46]: 3190 nM
GI50 [47]: 34.9 nM
TGI [47]: > 100000 nM
GI50 [48]: 69.1 nM
TGI [48]: > 100000 nM
GI50 [49]: 33.5 nM
TGI [49]: 17900 nM
GI50 [50]: 82.6 nM
TGI [50]: > 100000 nM
GI50 [51]: 33.7 nM
TGI [51]: > 100000 nM
GI50 [52]: 26 nM
TGI [52]: > 100000 nM
GI50 [53]: 44 nM
TGI [53]: > 100000 nM
